Results reported in the supplement of paper PMC8671470.

Experiments:
Test in all cases: cell viability (% survival relative to DMSO control); higher = less cytotoxic
Conditions in all cases: 72 h
MV4-11 = system: MV4-11
Description: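 8x8 drug-combination matrices (0–5000 nM; rosiglitazone and lestaurtinib 0–1000 nM) were run in MV4-11 cells for 72 h with CellTiter-Glo read-out. Survival is normalised to DMSO and 10 µM bortezomib and clipped at 100%.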

BV-173 = system: BV-173
Description: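 8x8 drug-combination matrices (0–5000 nM; rosiglitazone and lestaurtinib 0–1000 nM) were run in BV-173 cells for 72 h with CellTiter-Glo read-out. Survival is normalised to DMSO and 10 µM bortezomib and clipped at 100%.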

Mono-Mac-6 = system: Mono-Mac-6
Description: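 8x8 drug-combination matrices (0–5000 nM; rosiglitazone and lestaurtinib 0–1000 nM) were run in Mono-Mac-6 cells for 72 h with CellTiter-Glo read-out. Survival is normalised to DMSO and 10 µM bortezomib and clipped at 100%.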

Oc1ncc(F)c(O)n1 [5-fluorouracil] + C[C@]12O[C@H](C[C@]1(O)CO)n1c3ccccc3c3c4c(c5c6ccccc6n2c5c31)CNC4=O [Lestaurtinib]
cell viability [%]
Conditions | drug1 concentration 5 nM | drug1 concentration 10 nM | drug1 concentration 50 nM | drug1 concentration 100 nM | drug1 concentration 500 nM | drug1 concentration 1000 nM | drug1 concentration 5000 nM
BV-173, drug2 concentration 1 nM | > 100 | > 100 | > 100 | > 100 | 86.1 | 79.2 | 47.6
BV-173, drug2 concentration 5 nM | > 100 | 81.2 | 85.7 | 86.6 | > 100 | 82.8 | 69.9
BV-173, drug2 concentration 10 nM | 93 | 95.9 | 87.7 | > 100 | 72.4 | 74.2 | 71.8
BV-173, drug2 concentration 50 nM | 60.2 | 59.9 | 50 | 68.2 | 58.5 | 59.2 | 35
BV-173, drug2 concentration 100 nM | 68 | 43.6 | 46.5 | 47.5 | 40.6 | 44.3 | 20.2
BV-173, drug2 concentration 500 nM | 18.1 | 36.8 | 20.9 | 25.8 | 20.4 | 20.7 | 9.65
BV-173, drug2 concentration 1000 nM | 19.6 | 37.9 | 24.6 | 30.9 | 42.5 | 27.9 | 8.5
MV4-11, drug2 concentration 1 nM | 88.4 | > 100 | > 100 | 88.1 | 69.4 | 68.5 | 12.8
MV4-11, drug2 concentration 5 nM | 70.5 | 43 | 50.6 | 46 | 55.2 | 41.9 | 21.9
MV4-11, drug2 concentration 10 nM | 26.4 | 23.6 | 28.6 | 42.1 | 19 | 25.7 | 13.7
MV4-11, drug2 concentration 50 nM | 2.49 | 4.72 | 2.14 | 3.46 | 4.09 | 5.74 | 1.61
MV4-11, drug2 concentration 100 nM | 3.32 | 0.99 | 1.1 | 1.76 | 0.68 | 3.09 | -0.36
MV4-11, drug2 concentration 500 nM | 0.17 | -0.1 | 1.37 | 1.89 | 0.91 | 0.05 | 0.08
MV4-11, drug2 concentration 1000 nM | -1.49 | -0.48 | 0.53 | 3.29 | 2.21 | 1.49 | 0.17
Mono-Mac-6, drug2 concentration 1 nM | > 100 | > 100 | > 100 | 98 | 81.7 | 66.8 | 43.8
Mono-Mac-6, drug2 concentration 5 nM | > 100 | 62.4 | 76.5 | 65.3 | 69.7 | 54.7 | 48
Mono-Mac-6, drug2 concentration 10 nM | 58.5 | 59.6 | 61.9 | 68 | 42.9 | 54.4 | 50.9
Mono-Mac-6, drug2 concentration 50 nM | 20.5 | 20.9 | 19 | 21.8 | 19.7 | 19.4 | 21.1
Mono-Mac-6, drug2 concentration 100 nM | 15.4 | 11.6 | 14.2 | 12.9 | 8.95 | 10.9 | 7.36
Mono-Mac-6, drug2 concentration 500 nM | 1.8 | 1.6 | 3.44 | 3.7 | 1.89 | 2.85 | 1.13
Mono-Mac-6, drug2 concentration 1000 nM | -0.9 | 1.2 | 0.62 | 2.92 | 5.56 | 0.83 | 0

CN(C)CCNC(=O)c1cccn2c(=O)c3cc4ccccc4cc3nc12 [Bmh-21] + O=C(O)CC[N+](=O)[O-] [3-nitropropionic acid]
cell viability [%]
Conditions | drug1 concentration 5 nM | drug1 concentration 10 nM | drug1 concentration 50 nM | drug1 concentration 100 nM | drug1 concentration 500 nM | drug1 concentration 1000 nM | drug1 concentration 5000 nM
BV-173, drug2 concentration 5 nM | > 100 | > 100 | > 100 | 95.6 | 6.08 | 1.91 | 0.1
BV-173, drug2 concentration 10 nM | 94.1 | > 100 | > 100 | > 100 | 19.6 | 3.29 | -1.01
BV-173, drug2 concentration 50 nM | > 100 | 79.4 | 83.4 | > 100 | 0.68 | 35.3 | -0.78
BV-173, drug2 concentration 100 nM | 82.9 | > 100 | > 100 | 94.8 | 2.69 | -0.53 | 0.59
BV-173, drug2 concentration 500 nM | > 100 | 86.6 | 88.3 | > 100 | 38.2 | 68 | -0.99
BV-173, drug2 concentration 1000 nM | 92 | > 100 | > 100 | 66.9 | 10.4 | -1.13 | 0.46
BV-173, drug2 concentration 5000 nM | > 100 | > 100 | > 100 | 99.5 | 0.21 | -1.32 | 0
MV4-11, drug2 concentration 5 nM | 92.2 | > 100 | 96.9 | 80.6 | 72.2 | 88.4 | 29.9
MV4-11, drug2 concentration 10 nM | > 100 | > 100 | > 100 | > 100 | 39.5 | 77.4 | 34.1
MV4-11, drug2 concentration 50 nM | 91.9 | 88.3 | 90.3 | > 100 | 73.8 | 78.7 | 57.4
MV4-11, drug2 concentration 100 nM | 81.9 | > 100 | > 100 | 93.2 | 77.6 | 84.5 | 91.6
MV4-11, drug2 concentration 500 nM | > 100 | 99.8 | 96.2 | 95.9 | > 100 | 96.8 | 11.1
MV4-11, drug2 concentration 1000 nM | 90.9 | 89.5 | > 100 | 98.2 | > 100 | 57.3 | 68.4
MV4-11, drug2 concentration 5000 nM | > 100 | 77.9 | 66.9 | > 100 | 62.8 | 59.4 | 43.1
Mono-Mac-6, drug2 concentration 5 nM | 76.5 | > 100 | > 100 | 83.1 | 56.5 | 60.2 | 63.5
Mono-Mac-6, drug2 concentration 10 nM | > 100 | > 100 | > 100 | > 100 | 70.1 | 83.3 | 45.7
Mono-Mac-6, drug2 concentration 50 nM | > 100 | 91.1 | 87 | > 100 | 63.6 | 67.4 | 49.9
Mono-Mac-6, drug2 concentration 100 nM | 98.2 | > 100 | > 100 | 79.8 | 73.9 | 74.2 | > 100
Mono-Mac-6, drug2 concentration 500 nM | 90.6 | > 100 | 91.9 | > 100 | > 100 | 72.2 | 44.8
Mono-Mac-6, drug2 concentration 1000 nM | 96.3 | 97 | 88.2 | 90.7 | > 100 | 83.4 | 83.5
Mono-Mac-6, drug2 concentration 5000 nM | > 100 | 76.8 | > 100 | > 100 | 67.5 | 61 | 69.3
